Tested on: Iba-1 in microglia BV2
Assay: Western blot of Iba-1 in BV2 cells stimulated with hemoglobin and hypoxia, with or without CD163 RNA interference
Assay type: cell-based
Conditions: 10 μM Triol, 20 μM hemoglobin and 1% hypoxia for 6 hours
Experimental: FIG. 7. […] According to the manufacturer's instructions, RNAiMAX was used to transfect CD163 No. 01 and scrambled interference fragment NC respectively to BV2 cells, BV2 cell culture medium was then added with or without 10 μM Triol, and BV2 cells were stimulated with 20 μM hemoglobin and 1% hypoxia for 6 hours, after which protein samples were collected, and the expression of microglial activation markers Iba-1 and CD11b was detected by Western blot.
1) Preparation of protein samples (see the instructions of M-PER protein lysate): After the cells had been processed for the specified time, the medium was aspirated and then washed with 4° C. pre-chilled PBS (0.01M pH7.2˜7.3) for 3 times. 150-200 ul of M-PER protein lysate mixed with protease inhibitor (PMSF 100×) was added, which was lysed on ice for 10 minutes to fully lyse the cells. […] 2) BCA protein quantification (see the instructions of BCA protein quantification kit): corresponding components were added to a 96-well detection plate by the ratio of quantification reagent A solution:B solution:ddH2O:protein=100:2:7.5:5, and albumin standards diluted in gradient concentration were added to draw a standard curve. […] After the reaction, the absorbance of each well at a wavelength of 562 nm was detected using a microplate reader. […]

C[C@@]12CCCC1C1C[C@@H](O)[C@@]3(O)C[C@@H](O)CC[C@]3(C)C1CC2 (stereo partly drawn) [Triol, 5α-androst-3β,5,6β-triol]
effect on the up-regulation of Iba-1 in hypoxia and hemoglobin-activated microglia cells (without CD163 interference): inhibitory effect | inhibitory effect on the up-regulation of Iba-1 after interfering CD163 (CD163 RNA interference, FIG. 7): cancelled

— US11911396B2, “Use of compound in preparation of drug for treating cerebral small vessel disease” (GUANGZHOU CELLPROTEK PHARMACEUTICAL CO., LTD, priority 2017, dated 2024)
